Data from patent publication US20090004185A1, “AMINO-SUBSTITUTED QUINAZOLINE DERIVATIVES AS INHIBITORS OF BETA-CATENIN/TCF-4 PATHWAY AND CANCER TREATMENT AGENTS” (WYETH, priority 2007, published 2009).

Assays:
β-catenin/Tcf-4 = experiment: cells; format: cell-based; settings: Homo sapiens, 24 hours of incubation with compound, ratio Firefly/Renilla luciferase
How it was run: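 SW480-derived lines with integrated reporters (Tcf-4-driven firefly luciferase; SV40 firefly as specificity control; SV40 Renilla for cell number/toxicity), treated 24 hours with titrated compounds, final 0.316% DMSO. Dual-luciferase read-out; firefly/Renilla ratio as % of control, duplicate plates, IC50 (nM) from curve fit.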

SV40-Luc = SV40-Luc control luciferase reporter assay, SV 5A8 cell line (SV40-Luc and SV40-R-Luc), control for non-specific inhibitors; format: cell-based, human; settings: Homo sapiens, SV5A8, 24 h, SV 5A8 cells derived from SW480; 24 hours of incubation with compound; ratio Firefly/Renilla luciferase
How it was run: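 Stable SW480 reporter clones are exposed to compound dilutions for 24 h at 0.316% DMSO. Firefly signal, Tcf-4- or SV40-driven, is divided by SV40-Renilla signal, and IC50 is derived from this ratio relative to control.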

[1] = SW480, 24 h, Tcf 33.13 cells derived from SW480
[2] = Tcf22C11, 24 h, Tcf 22C11 cells derived from SW480

| IC50 (β-catenin/Tcf-4; [1]) [nM] | IC50 (β-catenin/Tcf-4; [2]) [nM] | IC50 (SV40-Luc) [nM] | SMILES |
| --- | --- | --- | --- |
| > 8920 | > 8920 | > 17800 | Cc1ccc2nc(NCc3ccco3)nc(NCc3ccc(NC(=O)C4CCN(Cc5ccccc5)CC4)cc3)c2c1 [Example 81, 1-benzyl-N-{4-[({2-[(2-furylmethyl)amino]-6-methylquinazolin-4-yl}amino)methyl]phenyl}piperidine-4-carboxamide] |
| 255 | 390 | > 4060 | Cc1ccc2c(NCc3ccc(NC(=O)C4CCN(Cc5ccc(Cl)cc5)CC4)cc3)nc(N(C)C)nc2c1 [Example 253, 1-(4-chlorobenzyl)-N-[4-({[2-(dimethylamino)-7-methylquinazolin-4-yl]amino}methyl)phenyl]piperidine-4-carboxamide] |
| 4190 | 3590 | > 8610 | CN(C)c1nc(NCc2ccc(NC(=O)C3CCN(Cc4ccc(F)cc4)CC3)cc2)c2cc(C(F)(F)F)ccc2n1 [Example 154, N-[4-({[2-(dimethylamino)-6-(trifluoromethyl)quinazolin-4-yl]amino}methyl)phenyl]-1-(4-fluorobenzyl)piperidine-4-carboxamide] |
| 726 | 606 | > 2530 | CNc1nc(NCc2ccc(NC(=O)C3CCN(Cc4ccccc4)CC3)cc2)c2cc(C)ccc2n1 [Example 149, 1-benzyl-N-[4-({[6-methyl-2-(methylamino)quinazolin-4-yl]amino}methyl)phenyl]piperidine-4-carboxamide] |
| 181 | 238 | > 2520 | C=Cc1ccc2c(NCc3ccc(NC(=O)c4ccc(Cl)nc4)cc3)nc(N(C)C)nc2c1 [Example 111, 6-chloro-N-[4-({[2-(dimethylamino)-7-vinylquinazolin-4-yl]amino}methyl)phenyl]nicotinamide] |
| 3150 | > 2500 | > 10000 | COC[C@@H]1CCCN1c1nc(NCc2ccc(NC(=O)c3ccc(F)cc3)cc2)c2ccc(C)cc2n1 [Example 205, 4-fluoro-N-{4-[({2-[(2S)-2-(methoxymethyl)pyrrolidin-1-yl]-7-methylquinazolin-4-yl}amino)methyl]phenyl}benzamide] |
| 511 | 497 | > 2540 | C/C=C/c1ccc2c(NCc3ccc(NC(=O)c4ccc(F)cc4)cc3)nc(N(C)C)nc2c1 [Example 96, N-{4-[({2-(dimethylamino)-7-[(1E)-prop-1-en-1-yl]quinazolin-4-yl}amino)methyl]phenyl}-4-fluorobenzamide] |
| 306 | 462 | > 2800 | Cc1ccc2nc(N(C)C)nc(NCc3ccc(NC(=O)c4ccc(Cl)cc4)cc3)c2c1 [Example 53, 4-chloro-N-[4-({[2-(dimethylamino)-6-methylquinazolin-4-yl]amino}methyl)phenyl]benzamide] |
| 541 | 548 | > 17700 | CN(C)c1nc(NCc2ccc(NC(=O)c3ccc(F)cc3)cc2)c2ccc(-c3cccnc3Cl)cc2n1 [Example 100, N-[4-({[7-(2-chloropyridin-3-yl)-2-(dimethylamino)quinazolin-4-yl]amino}methyl)phenyl]-4-fluorobenzamide] |
| > 6020 | 7510 | > 12000 | CNc1nc(NCc2ccc(NC(=O)c3ccc(F)c(C)c3)cc2)c2ccccc2n1 [Example 17, 4-fluoro-3-methyl-N-[4-({[2-(methylamino)quinazolin-4-yl]amino}methyl)phenyl]benzamide] |
| 809 | 754 | > 9990 | Cc1ccc2c(NCc3ccc(NC(=O)C4CCN(C5CCCCC5)CC4)cc3)nc(N(C)C)nc2c1 [Example 245, 1-cyclohexyl-N-[4-({[2-(dimethylamino)-7-methylquinazolin-4-yl]amino}methyl)phenyl]piperidine-4-carboxamide] |
| 549 | 522 | > 1240 | CNc1nc(N[C@@H](C)c2ccc(NC(=O)c3ccc(F)cc3)cc2)c2cccc(C)c2n1 [Example 275, (S)-4-fluoro-N-(4-(1-(8-methyl-2-(methylamino)quinazolin-4-ylamino)ethyl)phenyl)benzamide] |
